The results in this text go back to ChEMBL document CHEMBL1125280, “Direct prediction of dissociation constants (pKa's) of clonidine-like imidazolines, 2-substituted imidazoles, and 1-methyl-2-substituted-imidazoles from 3D structures using a comparative molecular field analysis (CoMFA) approach” (J Med Chem, 1991).

Structures are written as SMILES.

This data set can be described thus: Ionization constant (pKa). In kind it is physicochemical.
In turn, `c1ccn(-c2ncc[nH]2)c1` returned a pKa of 5.36. As to `Fc1ncc[nH]1`, the pKa was found to be 2.4. Compound `c1ccc(-c2ncc[nH]2)cc1` [2-PHENYLIMIDAZOLE] gave a pKa of 6.48. On to `Nc1ncc[nH]1`, for which the pKa came to 8.46. For the compound `Clc1ncc[nH]1`, the pKa turned out to be 3.55.

Consider `Cc1ccc(N=C2NCCN2)c(C)c1`, for which the pKa was 10.6. The compound `Clc1cc(Cl)c(N=C2NCCN2)c(Cl)c1` had a pKa of 7.75. Regarding `Cc1cc(Cl)c(N=C2NCCN2)c(Cl)c1`, the pKa was 8.29. For `CCc1ncc[nH]1` the value was 7.73. Turning to `Cc1cccc(Cl)c1N=C1NCCN1`, the pKa was 9.4. For `CCc1cccc(CC)c1NC1=NCCN1` the value was 10.6.

For the compound `Clc1cccc(N=C2NCCN2)c1Cl`, the pKa was 8.55. Then `Clc1ccccc1N=C1NCCN1`, with 9.15; and `Clc1cc(Br)cc(Cl)c1N=C1NCCN1`, with 7.72; and `Cn1ccnc1Br`, with 3.82. As to `COc1cc(Cl)c(N=C2NCCN2)c(Cl)c1`, the pKa amounted to 8.57. For `Cc1ccccc1N=C1NCCN1` the value was 10.2; for `Cc1cc(Cl)cc(C)c1N=C1NCCN1`, 10.2; for `Fc1cccc(F)c1N=C1NCCN1`, 8.18. For `Cc1ncc[nH]1` the value was 7.86; for `CSc1ncc[nH]1`, 5.95. As to `Brc1ncc[nH]1`, the pKa is 3.79. For `Cc1cc(C)c(N=C2NCCN2)c(C)c1` the value was 10.8; for `Cn1ccnc1F`, 2.3; for `Cn1ccnc1N`, 8.54.

The compound `Cc1cc(Cl)cc(Cl)c1N=C1NCCN1` returned a pKa of 9.03. The compound `Brc1cccc(Br)c1N=C1NCCN1` showed a pKa of 7.8.

The compound `Clc1cccc(Br)c1N=C1NCCN1` showed a pKa of 7.93. As for `Cc1cc(Br)cc(C)c1N=C1NCCN1`, the pKa is 10.2.

As to `c1ccc(NC2=NCCN2)cc1`, the pKa amounted to 10.1.

In turn, `Cc1ccc(NC2=NCCN2)c(Cl)c1` [TOLONIDINE] showed a pKa of 9.41. For `O=[N+]([O-])c1cc(Cl)c(N=C2NCCN2)c(Cl)c1`, the pKa came to 6.86. For `Brc1cc(Br)c(N=C2NCCN2)c(Br)c1` the value was 7.46; for `Clc1ccc(Cl)c(N=C2NCCN2)c1`, 8.5; for `Cc1cccc(C)c1N=C1NCCN1`, 10.5. Regarding `Cc1cc(Cl)ccc1N=C1NCCN1`, the pKa was determined as 9.99.

On to `O=[N+]([O-])c1ncc[nH]1` [AZOMYCIN], for which the pKa is -0.81. Then `Cn1ccnc1[N+](=O)[O-]`, with -0.48. `Clc1ccc(N=C2NCCN2)c(Cl)c1` came in with a pKa of 8.73.

Consider `Cc1cc(C)c(N=C2NCCN2)c(Cl)c1`, for which the pKa was 9.59.

`Cn1ccnc1` [1-METHYLIMIDAZOLE] came in with a pKa of 7.12.

Turning to `Fc1cccc(Cl)c1N=C1NCCN1`, the pKa came to 8.01.

The pKa is the pH at which an ionisable group is half protonated. Low values mean a stronger acid or weaker base, high ones a weaker acid or stronger base.
